# Where a SMILES comes first, the peptide text is derived from it. Bridges are numbered along the chain shown (N, C = ends).
# Columns and labels:
# [1] = tested on: female NMRI mice; conditions: single intravenous bolus 50 mg/kg, observed 4 days, previously performed, ref ICAAC 2006 poster F2-1166; cited from earlier work
# Description: page 11: homeostatic conditions.
# [2] = pKa by 2D 1H-1H TOCSY NMR pH titration; format: physicochemical; conditions: imidazole ring protons, 50 mM phosphate buffer, 298 K
# Description: 2D ^1H–^1H TOCSY NMR spectra were acquired by sampling the FID for 117 and 14.5 milliseconds by acquiring 1024 × 128 complex data points in the direct and indirect dimensions, respectively. For these ^1H–^1H TOCSY NMR experiments, 16 transients were acquired with an inter-scan relaxation delay of 1 second. All NMR spectra were processed with ample zero filling in all spectral dimensions in Bruker Topspin 3.5 pl7 software and integrated into the same software. Data were plotted in proFit 7 (Quantum Soft). Titration curves were fitted to the Henderson-Hasselbalch equation in proFit 7 as δobs=(δA+10^pKa−pH*δHA)/(1+10^pKa−pH), where δobs is the measured chemical shift, δA is the chemical shift of the deprotonated form and δHA is the chemical shift of the protonated form. The pH of the sample was determined after the measurement.
# [3] = cited from earlier work
# Description: The structure of plectasin is stabilized by three disulfide bridges (C4-C30; C15-C37; C19-C39), which is typical for this type of defensins and leads to high confor ...
# [4] = Thioflavin T fluorescence measurements; format: physicochemical; conditions: Gly-HCl pH 2.5; dissolved; c=2 mg/mL; excitation 440±10 nm, emission 490±10 nm
# Method: Plectasin stock solutions were dialyzed against 10 mM acetate buffer pH 5.5. A final concentration of 2 mg/mL (450 µM) was obtained by dilution with the dialysis buffer and ThT was added to a final concentration of 20 µM. The fluorescence was monitored after each cycle at 490 ± 10 nm with excitation at 440 ± 10 nm with a gain of 1000 using FLOUstar Omega multi-mode microplate reader (BMG Labtech). Omega software was used to control the plate reader and export the data. Insulin was fibrillated at 40 °C with agitation (600 rpm) for 150 s every 5 min[79]. Additionally, the fluorescence of a sample containing insulin fibrils at a protein concentration of 2 mg/mL was compared to freshly dialyzed plectasin in 10 mM acetate buffer pH 3.5 and pH 5.5 and a sample diluted into 10 mM acetate buffer pH 5.5 and 10 mM phosphate buffer pH 6.5, equilibrated for 12 h was compared (end-point measurement).
# [5] = molecular target: plectasin variant D9S Q14K V36L (PPI42); experiment: dynamic light scattering; pH series, phosphate buffer above pH 6, 2 mg/mL (450 µM), 25 °C
# [6] = molecular target: His18 (position 18, …); experiment: NMR; conditions: 298 K; not stated (50 mM buffer; no added salt mentioned); 50 mM phosphate according to the Fig. 6b caption. Methods: 50 mM phosphate or 50 mM acetate, with the stock dialysed against 10 mM acetate pH 3.5 and diluted into the final buffer.; Folded, disulfide-intact soluble monomer at 250 µM total protein; fibrils forming at higher pH are NMR-invisible
# [7] = molecular target: His16 (position 16, …); experiment: NMR; conditions: 298 K; not stated (50 mM buffer; no added salt mentioned); 50 mM phosphate according to the Fig. 6b caption. Methods: 50 mM phosphate or 50 mM acetate, with the stock dialysed against 10 mM acetate pH 3.5 and diluted into the final buffer.; Folded, disulfide-intact soluble monomer at 250 µM total protein; fibrils forming at higher pH are NMR-invisible
molecule,measurement,setting,value
"CC[C@H](C)[C@@H]1NC(=O)[C@H](CO)NC(=O)[C@H](CCCCN)NC(=O)[C@@H]2CSSC[C@@H](C(=O)N[C@@H](Cc3ccc(O)cc3)C(=O)O)NC(=O)[C@H](CCCCN)NC(=O)[C@@H]3CSSC[C@H](NC(=O)[C@H](CCCCN)NC(=O)[C@H](CCSC)NC(=O)[C@H](CC(=O)O)NC(=O)[C@H](CC(=O)O)NC(=O)[C@H](CCC(=O)O)NC(=O)[C@H](CO)NC(=O)[C@H](Cc4c[nH]c5ccccc45)NC(=O)[C@@H]4CCCN4C(=O)CNC(=O)[C@H](CC(N)=O)NC(=O)[C@@H](NC(=O)CNC(=O)[C@H](Cc4ccccc4)NC(=O)CN)CSSC[C@H](NC(=O)[C@H](Cc4ccc(O)cc4)NC(=O)CNC(=O)CNC(=O)[C@H](CCCCN)NC(=O)[C@H](Cc4ccc(O)cc4)NC(=O)CNC(=O)[C@H](CCCCN)NC1=O)C(=O)N[C@@H](C)C(=O)N[C@@H](CCCCN)C(=O)NCC(=O)NCC(=O)N[C@@H](Cc1ccccc1)C(=O)N[C@@H](CC(C)C)C(=O)N3)C(=O)N[C@@H](Cc1c[nH]cn1)C(=O)N[C@@H](CC(N)=O)C(=O)N[C@@H](Cc1c[nH]cn1)C(=O)N2 [PPI42] (H-GFGCNGPWSEDDMKCHNHCKSIKGYKGGYCAKGGFLCKCY-OH; disulfide 4-30, 15-37, 19-39)",Maximum Tolerated Dose (MTD),[1],> 50 mg/kg
same,No Observed Adverse Effect Level (NOAEL),[1],> 50 mg/kg
same,pKa for (H16),[2],4.4
same,pKa for (H18),[2],6.4
CC[C@H](C)[C@@H]1NC(=O)[C@H](CO)NC(=O)[C@H](CCCCN)NC(=O)[C@@H]2CSSC[C@@H](C(=O)N[C@@H](Cc3ccc(O)cc3)C(=O)O)NC(=O)[C@H](CCCCN)NC(=O)[C@@H]3CSSC[C@H](NC(=O)[C@H](CCC(N)=O)NC(=O)[C@H](CCSC)NC(=O)[C@H](CC(=O)O)NC(=O)[C@H](CC(=O)O)NC(=O)[C@H](CCC(=O)O)NC(=O)[C@H](CC(=O)O)NC(=O)[C@H](Cc4c[nH]c5ccccc45)NC(=O)[C@@H]4CCCN4C(=O)CNC(=O)[C@H](CC(N)=O)NC(=O)[C@@H](NC(=O)CNC(=O)[C@H](Cc4ccccc4)NC(=O)CN)CSSC[C@H](NC(=O)[C@H](Cc4ccc(O)cc4)NC(=O)CNC(=O)CNC(=O)[C@H](CCCCN)NC(=O)[C@H](Cc4ccc(O)cc4)NC(=O)CNC(=O)[C@H](CCCCN)NC1=O)C(=O)N[C@@H](C)C(=O)N[C@@H](CCCCN)C(=O)NCC(=O)NCC(=O)N[C@@H](Cc1ccccc1)C(=O)N[C@@H](C(C)C)C(=O)N3)C(=O)N[C@@H](Cc1c[nH]cn1)C(=O)N[C@@H](CC(N)=O)C(=O)N[C@@H](Cc1c[nH]cn1)C(=O)N2 [plectasin wildtype],in vivo half-life,[3],long in vivo half-life
same,serum stability,[3],high serum stability
same,toxicity,[3],low toxicity
Insulin: positive control known to form amyloid fibrils upon shaking at 40 °C,"Thioflavin T fluorescence (490 nm), end-point",[4],13428.8
plectasin variant D9S Q14K V36L (PPI42) (peptide),fraction of medium-sized oligomers and fibrils (% mass),[5],< 2.5 % mass
GFGCNGPWSEDDMKCHNHCKSIKGYKGGYCAKGGFLCKCY,pKa,[6],around 6.4
same,pKa,[7],around 4.4

# Source: publication PMC9174238, “pH- and concentration-dependent supramolecular assembly of a fungal defensin plectasin variant into helical non-amyloid fibrils” (Nature Communications, 2022)
